Tested on: allergic bronchoconstriction in Brown Norway rats
Assay: Allergic asthma model: OVA-sensitized and challenged Brown Norway rats, whole body plethysmography (Penh)
Format: in vivo, Brown Norway rat
Method: An animal model of allergic asthma was developed by sensitizing Brown Norway rats (BNR) to ovalbumin (OVA) and subsequently challenging them with the same allergen.
Male Brown Norway rats (BN/SsdNhsd) 150-199 g were used. A stock solution prepared containing the following ingredients: 10 mL 0.9% of sterile saline solution, 100 μL of ovalbumin solution 1 mg/mL in saline, 1.5 g Al(OH)3 and 10 μL Bordetella Pertussis purified toxin stock solution 500 ng/mL. The solution is mixed thoroughly but not vortexed and then injected intraperitoneally into each rat using a 1 cc syringe and 25-gauge needle.
The rat is placed in the whole body plethysmograph/chamber for approximately 30 minutes in order to calm down. Baseline pulmonary function is recorded for 30 minutes. A solution of ovalbumin 5% in saline is aerosolized for 5 minutes using an ultrasonic nebulizer from Buxco®. The pulmonary function is recorded for 6 hrs during which the effects of different treatments on airway resistance were evaluated.
A whole body plethysmograph from Buxco® was used to monitor pulmonary function and the effect of perfluorocarbon fluids (PFCs) and/or different gas mixture containing CO2 on constricted airways. The plethysmograph consists of a chamber with a pressure transducer along with humidity and temperature probes connected to an amplifier Max II, which is connected to a personal computer and managed by BioSystem XA software. In addition, there are two flow regulators to pump the air or CO2 containing gas mixture in and out of the chamber, and an ultrasonic nebulizer. The primary advantage of the Buxco® methodology is that it is non-invasive and minimizes stress, with animals allowed to freely roam within the measuring chamber. The evaluation of bronchoconstriction was achieved using the Penh (enhanced pause) (an index of airway obstruction) [see Hamelmann et al., (1997) Noninvasive measurement of airway responsiveness in allergic mice using barometric plethysmography, Am J Respir Crit Care Med […] September; 156(3 Pt 1):766-775, incorporated herein by reference]. […]
A gas mixture containing air and CO2 (2, 5, 8, 10 and 20%, respectively, by volume) was delivered to the plethysmograph chamber as described above. The gas was monitored (O2 and CO2) using a gas analyzer from Buxco® and pulmonary function was recorded during and after cessation of the treatment. All treatments were delivered during the late phase response to OVA challenge. […]
FC-43 is placed in the Arcotech dual chamber jet nebulizer and driven by a gas mixture containing air and 5% CO2 by volume. The concentration of FC-43 was determined as outlined above and averaged about 39 mg/liter. The treatment was delivered for 10 minutes. Two minutes after cessation of the first treatment, salbutamol (1 mg/ml) was delivered for 5 minutes using an ultrasonic nebulizer.
FC-77 is placed in the Arcotech dual chamber jet nebulizer and driven by a gas mixture containing air and 5% CO2 by volume. The treatment was delivered for 10 minutes. For technical reasons pulmonary function was evaluated immediately after cessation of the treatment.
Perfluorodecalin is placed in the Arcotech dual chamber jet nebulizer and driven by a gas mixture containing air and 5% CO2 by volume. The treatment was delivered for 10 minutes. For technical reasons pulmonary function was evaluated immediately after cessation of the treatment.
Perfluorooctylbromide is placed in the Arcotech dual chamber jet nebulizer and driven by a gas mixture containing air and 20% CO2 by volume. The treatment was delivered for 10 minutes. For technical reasons pulmonary function was evaluated immediately after cessation of the treatment.
A mixture of approximately equal amounts of FC-43 and FC-77 was placed in the Arcotech dual chamber jet nebulizer and driven by a gas mixture containing air and 5% CO2 by volume. The treatment was delivered for 10 minutes. […]

SMILES | bronchodilation by CO2 alone (2%, 5%, 8%, 10% and 20% CO2 by volume, balance air) | duration of bronchodilation (20% CO2 in air alone) | relaxation of constricted airways (percent reduction of bronchoconstriction), comparison between CO2 concentrations (20% and 8% CO2 compared with 2% and 5% CO2 in air, groups of rats) | drop in Penh (salbutamol 1 mg/ml alone) | duration of drop in Penh before returning to pretreatment levels (salbutamol 1 mg/ml alone) | duration of response (salbutamol 1 mg/ml given after PFC/CO2 treatment) | drop in Penh (response) (salbutamol 1 mg/ml given after PFC/CO2 treatment (FC-43 with 5% CO2 in air, 10 minutes))
O=C=O [CO2, carbon dioxide] | acts as a bronchodilator | approximately 2 minutes | significantly (P<0.05) higher | – | – | – | –
CC(C)(C)NCC(O)c1ccc(O)c(CO)c1 (stereo not shown) [salbutamol] | – | – | – | approximately 60% | 5 min | never returned to pre-treatment levels | approximately 70%

— patent publication US8454938B2, “Treatment of respiratory diseases” (Solaeromed Inc., priority 2005, dated 2013)
